Laboratory results published in patent US20080145858A1, “DETECTION AND IDENTIFICATION OF TOXICANTS BY MEASUREMENT OF GENE […]” (priority 2003, published 2008).
Marks after values point to notes of the source that are not given here.

Test system: Xenopus laevis cleavage stage embryos (stage 8)
Experiment: Xenopus cDNA microarray, differential gene expression after PMA treatment during cleavage stage (Group I)
Type: in vivo
Conditions: stage 8; for Normalized by Landmarks (1.59) / Normalized by all Data Points (1.28) / Ratio of Medians (Cy5/Cy3) First Spot / Ratio of Medians (Cy5/Cy3) Mean / Ratio of Medians (Cy5/Cy3) Second Spot / (CY3/CY5) by Landmarks (1.6) / (CY3/CY5) by all Data Points (1.3) / Normalization by Landmarks (1.6) / Normalization by all Data Points (1.3): PMA 100 ng/ml
Description: Specifically, the method and screen of the present invention function as follows. EST clones produced from Xenopus laevis unfertilized eggs were used in the present study with ˜1,200 EST clones from a 18,500 EST clone set selected for production of a Xenopus cDNA microarray. The Xenopus microarray was used to measure the effect of chemical treatment on Xenopus embryo gene regulation. The chemical treatment was a phorbol ester, PMA. Xenopus eggs were obtained from females induced for ovulation and fertilized in vitro. Control Xenopus laevis embryos were allowed to develop to stage 8 blastula or stage 15 neurula. Treated embryos were exposed to PMA during cleavage stage or during neurulation with end points of blastula (stage 8) or neurula (stage 15). Specifically, PMA 100 ng/ml was added to the incubation media during cleavage stages for evaluation in stage 8 embryo or PMA was added during neural induction for evaluation in stage 15 embryos. RNA extracted from the embryos was used to generate fluorescent cDNA probes for Xenopus microarray analyses to measure differential gene expression with and without the phorbol ester treatment. Analysis was performed using paired RNA samples to compare PMA-treated and untreated embryos: Group I measured the effects of PMA-treatment during the cleavage stage in stage 8 embryos and Group II measured the effects of PMA-treatment during neurulation in stage 15 embryos. Group III measured the change in gene expression between stage 8 and stage 15 embryos.
cDNA fragments were obtained by PCR replication of Xenopus laevis unfertilized egg cDNA inserts, purified, quantitated and loaded onto glass chips by robotics. In addition to the selected ˜1,200 genes, 64 lambda Q gene, an internal control cDNA (Genomic Solutions, Inc., Ann Arbor, Mich.) was loaded on the chip. The insert DNA from ˜1,200 clones were PCR amplified using forward and reverse primers (GF.200 primers, Research Genetics, Huntsville, Ala.). A second PCR was carried out using 1 μl of the primary PCR (20 μl) for template. Excess dNTPs, polymerase and other PCR artifacts were removed from the secondary PCR reactions using Millipore Multiscreen plates (Millipore Corporation, Bedford, Mass.) using the standard protocol. The purity of the PCR products was assessed by electrophoresis and documented using an Alphalmager 1000 Digital Imaging System (Alpha Innotech Corporation, San Leandro, Calif.). The DNA obtained by PCR was quantitated using PicoGreen (Molecular Probes, Eugene, Oreg.). The DNA was denatured and arrayed onto amino-silane coated microscope slides (CMT-GAPS coated slides, Corning, Corning, N.Y.) using a Flexys robotic workstation (Genomic Solutions Inc.). The ˜1,200 PCR products were arrayed in duplicate on each slide and cross-linked. Each gene chip contained duplicate cDNA samples.
Total RNA was prepared from embryos treated in three separate dishes per treatment group that were pooled. Total RNA was isolated from the frog embryos (1,200 embryos for each probe production) using TRIzol extraction (Gibco BRL, Grand Island, N.Y.) and Qiagen RNeasy kits (Qiagen, Valencia, Calif.). The ethanol precipitated RNA was resuspended in RNase-free water, quantitated with RiboGreen (Molecular Probes, Eugene, Oreg.). Total RNA was further purified using oligoTex mRNA maxi kit (Qiagen Co.) with the bound mRNA eluted with minimum volume of elution buffer and precipitated with ethanol. The recovery rate of mRNA by the ethanol precipitation method was ˜70%. Cy3- or Cy5-tagged probes were produced from an mRNA mixture (20 μl) of Xenopus mRNA (5 μg) and lambda Q gene mRNA (3.5 ng) reverse-transcribed with oligo(dT)18-22 primer and dNTPs and the reverse-transcribed cDNA was cross-linked with Cy3 or Cy5 as described in Clontech Atlas™ Glass Fluorescent Labeling kit manual (www.clontech.com). After hydrolysis of the RNA and purification of the probe (Centricon 50, Millipore, Bedford, Mass.), the cDNA in TE buffer was quantitated by absorbance at 260 nm. […]

SMILES: CCCCCCCCCCCCCC(=O)O[C@@H]1[C@@H](C)[C@@]2(O)[C@@H](C=C(CO)C[C@]3(O)C(=O)C(C)=C[C@@H]23)[C@@H]2C(C)(C)[C@]12OC(C)=O [PMA, phorbol 12-myristate 12-acetate]
- alpha-tubulin expression ratio, mean of 4 data points using NF from landmarks (2 alpha-tubulin genes (house keeping)): 0.85
- Normalized by Landmarks (1.59) (PBX0134C10 mRNA): 7.95
- Normalized by all Data Points (1.28) (PBX0134C10 mRNA): 6.40
- Ratio of Medians (Cy5/Cy3) First Spot (PBX0134C10 mRNA): 3.33
- Ratio of Medians (Cy5/Cy3) Mean (PBX0134C10 mRNA): 5.00 ± 1.67^a
- Ratio of Medians (Cy5/Cy3) Second Spot (PBX0134C10 mRNA): 6.67
- Normalized by Landmarks (1.59) (PBX0134E04 mRNA): 4.58
- Normalized by all Data Points (1.28) (PBX0134E04 mRNA): 3.69
- Ratio of Medians (Cy5/Cy3) First Spot (PBX0134E04 mRNA): 2.75
- Ratio of Medians (Cy5/Cy3) Mean (PBX0134E04 mRNA): 2.88 ± 0.12
- Ratio of Medians (Cy5/Cy3) Second Spot (PBX0134E04 mRNA): 3.00
- Normalized by Landmarks (1.59) (PBX0134G08 mRNA): 7.62
- Normalized by all Data Points (1.28) (PBX0134G08 mRNA): 6.13
- Ratio of Medians (Cy5/Cy3) First Spot (PBX0134G08 mRNA): 4.25
- Ratio of Medians (Cy5/Cy3) Mean (PBX0134G08 mRNA): 4.79 ± 0.54
- Ratio of Medians (Cy5/Cy3) Second Spot (PBX0134G08 mRNA): 5.33
- Normalized by Landmarks (1.59) (PBX0134G10 mRNA): 5.20
- Normalized by all Data Points (1.28) (PBX0134G10 mRNA): 4.19
- Ratio of Medians (Cy5/Cy3) First Spot (PBX0134G10 mRNA): 2.71
- Ratio of Medians (Cy5/Cy3) Mean (PBX0134G10 mRNA): 3.27 ± 0.56
- Ratio of Medians (Cy5/Cy3) Second Spot (PBX0134G10 mRNA): 3.83
- Normalized by Landmarks (1.59) (PBX0134G11 mRNA): 3.90
- Normalized by all Data Points (1.28) (PBX0134G11 mRNA): 3.14
- Ratio of Medians (Cy5/Cy3) First Spot (PBX0134G11 mRNA): 2.50
- Ratio of Medians (Cy5/Cy3) Mean (PBX0134G11 mRNA): 2.45 ± 0.05
- Ratio of Medians (Cy5/Cy3) Second Spot (PBX0134G11 mRNA): 2.40
- Normalized by Landmarks (1.59) (PBX0134H03 mRNA): 5.44
- Normalized by all Data Points (1.28) (PBX0134H03 mRNA): 4.38
- Ratio of Medians (Cy5/Cy3) First Spot (PBX0134H03 mRNA): 3.67
- Ratio of Medians (Cy5/Cy3) Mean (PBX0134H03 mRNA): 3.42 ± 0.25
- Ratio of Medians (Cy5/Cy3) Second Spot (PBX0134H03 mRNA): 3.17
- Normalized by Landmarks (1.59) (PBX0135C06 mRNA): 4.29
- Normalized by all Data Points (1.28) (PBX0135C06 mRNA): 3.46
- Ratio of Medians (Cy5/Cy3) First Spot (PBX0135C06 mRNA): 3.00
- Ratio of Medians (Cy5/Cy3) Mean (PBX0135C06 mRNA): 2.70 ± 0.30
- Ratio of Medians (Cy5/Cy3) Second Spot (PBX0135C06 mRNA): 2.40
- (CY3/CY5) by Landmarks (1.6) (PBX0136B04 mRNA): 2.76
- (CY3/CY5) by all Data Points (1.3) (PBX0136B04 mRNA): 4.41
- Normalization by Landmarks (1.6) (PBX0136B04 mRNA): 0.36
- Normalization by all Data Points (1.3) (PBX0136B04 mRNA): 0.23
- Ratio of Medians (Cy5/Cy3) First Spot (PBX0136B04 mRNA): 0.11
- Ratio of Medians (Cy5/Cy3) Mean (PBX0136B04 mRNA): 0.17 ± 0.06
- Ratio of Medians (Cy5/Cy3) Second Spot (PBX0136B04 mRNA): 0.24
- Normalized by Landmarks (1.59) (PBX0136C09 mRNA): 5.55
- Normalized by all Data Points (1.28) (PBX0136C09 mRNA): 4.47
- Ratio of Medians (Cy5/Cy3) First Spot (PBX0136C09 mRNA): 3.80
- Ratio of Medians (Cy5/Cy3) Mean (PBX0136C09 mRNA): 3.49 ± 0.31
- Ratio of Medians (Cy5/Cy3) Second Spot (PBX0136C09 mRNA): 3.17
- Normalized by Landmarks (1.59) (PBX0136F03 mRNA): 5.26
- Normalized by all Data Points (1.28) (PBX0136F03 mRNA): 4.24
- Ratio of Medians (Cy5/Cy3) First Spot (PBX0136F03 mRNA): 3.50
- Ratio of Medians (Cy5/Cy3) Mean (PBX0136F03 mRNA): 3.31 ± 0.20
- Ratio of Medians (Cy5/Cy3) Second Spot (PBX0136F03 mRNA): 3.11
- Normalized by Landmarks (1.59) (PBX0137A11 mRNA): 5.31
- Normalized by all Data Points (1.28) (PBX0137A11 mRNA): 4.28
- Ratio of Medians (Cy5/Cy3) First Spot (PBX0137A11 mRNA): 2.17
- Ratio of Medians (Cy5/Cy3) Mean (PBX0137A11 mRNA): 3.34 ± 1.66
- Ratio of Medians (Cy5/Cy3) Second Spot (PBX0137A11 mRNA): 4.50
- (CY3/CY5) by Landmarks (1.6) (PBX0137E10 mRNA): 1.85
- (CY3/CY5) by all Data Points (1.3) (PBX0137E10 mRNA): 2.96
- Normalization by Landmarks (1.6) (PBX0137E10 mRNA): 0.54
- Normalization by all Data Points (1.3) (PBX0137E10 mRNA): 0.34
- Ratio of Medians (Cy5/Cy3) First Spot (PBX0137E10 mRNA): 0.31
- Ratio of Medians (Cy5/Cy3) Mean (PBX0137E10 mRNA): 0.26 ± 0.05
- Ratio of Medians (Cy5/Cy3) Second Spot (PBX0137E10 mRNA): 0.21
- Normalized by Landmarks (1.59) (PBX0137G06 mRNA): 3.74
- Normalized by all Data Points (1.28) (PBX0137G06 mRNA): 3.01
- Ratio of Medians (Cy5/Cy3) First Spot (PBX0137G06 mRNA): 2.22
- Ratio of Medians (Cy5/Cy3) Mean (PBX0137G06 mRNA): 2.35 ± 0.13
- Ratio of Medians (Cy5/Cy3) Second Spot (PBX0137G06 mRNA): 2.47
- Normalized by Landmarks (1.59) (PBX0138A04 mRNA): 4.75
- Normalized by all Data Points (1.28) (PBX0138A04 mRNA): 3.83
- Ratio of Medians (Cy5/Cy3) First Spot (PBX0138A04 mRNA): 1.64
